# Data as given in patent publication US12180193B2, “Accelerating fibrosarcoma protein degrading compounds and associated methods of use” (Arvinas Operations, Inc., priority 2020, dated 2024).
# Experiments:
# BRAF V600E = molecular target: T1, BRAF V600E (Homo sapiens, UniProt P15056, V600E); test: Cellular assay of target protein degradation, T-Rex 293 cells stably transfected with HA-BRAF_V600E (HA immunofluorescence, high content imaging); format: cell-based; settings: T-Rex 293 HA-BRAF V600E; for DC50: half maximal degradation, read-out: BRaf V600E DC50; for Dmax: maximum degradation observed
# T1 construct: expressed in transfected cells
# T1 sequence (P15056 whole entry V600E): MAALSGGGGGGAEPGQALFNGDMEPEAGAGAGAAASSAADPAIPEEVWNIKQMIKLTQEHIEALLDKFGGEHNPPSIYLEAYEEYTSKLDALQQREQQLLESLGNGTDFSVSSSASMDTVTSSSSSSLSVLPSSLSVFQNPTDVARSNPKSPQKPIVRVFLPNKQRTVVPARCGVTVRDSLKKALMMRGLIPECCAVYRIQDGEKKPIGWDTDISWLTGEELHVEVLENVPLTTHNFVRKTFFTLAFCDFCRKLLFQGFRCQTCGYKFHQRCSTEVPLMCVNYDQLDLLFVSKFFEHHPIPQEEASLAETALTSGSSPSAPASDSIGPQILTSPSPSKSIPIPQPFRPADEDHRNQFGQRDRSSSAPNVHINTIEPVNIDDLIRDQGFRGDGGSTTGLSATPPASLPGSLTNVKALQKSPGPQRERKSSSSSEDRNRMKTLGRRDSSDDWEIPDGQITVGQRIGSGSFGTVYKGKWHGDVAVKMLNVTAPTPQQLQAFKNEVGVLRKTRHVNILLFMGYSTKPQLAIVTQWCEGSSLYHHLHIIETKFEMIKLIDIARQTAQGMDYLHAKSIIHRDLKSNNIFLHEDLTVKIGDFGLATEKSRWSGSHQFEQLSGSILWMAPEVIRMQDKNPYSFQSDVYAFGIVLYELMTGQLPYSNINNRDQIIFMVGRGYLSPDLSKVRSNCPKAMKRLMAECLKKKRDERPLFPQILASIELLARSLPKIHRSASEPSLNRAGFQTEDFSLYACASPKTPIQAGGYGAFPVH
# How it was run: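 Read-out is anti-HA immunofluorescence quantified by high-content imaging, giving half-maximal degradation concentration (DC50) and maximum degradation (Dmax, percent of control). Cells expressed the construct under 1 ng/mL doxycycline and received compound (1 μM to 0.1 nM final, 0.1% DMSO) for 24 h at 37 °C.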
# BRAF G466V = molecular target: T2, BRAF G466V (Homo sapiens, UniProt P15056, G466V); test: Cellular assay of target protein degradation, T-Rex 293 cells stably transfected with HA-BRAF G466V (HA immunofluorescence, high content imaging); format: cell-based; settings: T-Rex 293 HA-BRAF G466V; for DC50: half maximal degradation, read-out: BRaf G466V DC50; for Dmax: maximum degradation observed
# T2 construct: expressed in transfected cells
# T2 sequence (P15056 whole entry G466V): as the sequence (P15056 whole entry V600E) above, with G466V, E600V counted along it
# How it was run: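 First, stably transfected T-Rex 293 cells were plated with 0.75 ng/mL doxycycline and grown for 24 hours. Next, compound (final 30 nM to 3 pM, 0.1% DMSO) was added for another 24 hours at 37° C. Finally, cells were fixed, stained for HA and imaged.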
SMILES,DC50 (BRAF V600E),Dmax (BRAF V600E),DC50 (BRAF G466V),Dmax (BRAF G466V)
"O=C1CCC(N2Cc3cc(CCOCCN4CCN(c5ccc(-c6cnc7[nH]cc(C(=O)c8c(F)ccc(NS(=O)(=O)N9CC[C@@H](F)C9)c8F)c7c6)cc5)CC4)ccc3C2=O)C(=O)N1 (stereo partly drawn) [Compound 148, (3R)-N-[3-(5-{4-[4-(2-{2-[2-(2,6-dioxopiperidin-3-yl)-1-oxo-2,3-dihydro-1H-isoindol-5-yl]ethoxy}ethyl)piperazin-1-yl]phenyl}-1H-pyrrolo[2,3-b]pyridine-3-carbonyl)-2,4-difluorophenyl]-3-fluoropyrrolidine-1-sulfonamide]",5 to 50 nM,35 to 70%,1 to 10 nM,> 70%
"O=C1CCC(N2Cc3cc(OC[C@@H]4CCN4c4ccc(-c5cnc6[nH]cc(C(=O)c7c(F)ccc(NS(=O)(=O)N8CC[C@@H](F)C8)c7F)c6c5)cc4)ccc3C2=O)C(=O)N1 (stereo partly drawn) [Compound 17, (3R)-N-[3-(5-{4-[(2S)-2-({[2-(2,6-dioxopiperidin-3-yl)-1-oxo-2,3-dihydro-1H-isoindol-5-yl]oxy}methyl)azetidin-1-yl]phenyl}-1H-pyrrolo[2,3-b]pyridine-3-carbonyl)-2,4-difluorophenyl]-3-fluoropyrrolidine-1-sulfonamide]",> 500 nM,–,> 30 nM,–
"O=C1CCC(N2Cc3cc(N4CC(CN5CCN(C6CCN(c7ccc(-c8cnc9[nH]cc(C(=O)c%10c(F)ccc(NS(=O)(=O)N%11CC[C@@H](F)C%11)c%10F)c9c8)cc7)CC6)CC5)C4)ccc3C2=O)C(=O)N1 (stereo partly drawn) [Compound 209, (3R)—N-{3-[5-(4-{4-[4-({1-[2-(2,6-dioxopiperidin-3-yl)-1-oxo-2,3-dihydro-1H-isoindol-5-yl]azetidin-3-yl}methyl)piperazin-1-yl]piperidin-1-yl}phenyl)-1H-pyrrolo[2,3-b]pyridine-3-carbonyl]-2,4-difluorophenyl}-3-fluoropyrrolidine-1-sulfonamide]",5 to 50 nM,< 35%,1 to 10 nM,35 to 70%
"O=C1CCC(N2Cc3cc(N4CC5(CN(CC#Cc6ccc(-c7cnc8[nH]cc(C(=O)c9c(F)ccc(NS(=O)(=O)N%10CC[C@@H](F)C%10)c9F)c8c7)cc6)C5)C4)ccc3C2=O)C(=O)N1 (stereo partly drawn) [Compound 42, (3R)-N-(3-{5-[4-(3-{6-[2-(2,6-dioxopiperidin-3-yl)-1-oxo-2,3-dihydro-1H-isoindol-5-yl]-2,6-diazaspiro[3.3]heptan-2-yl}prop-1-yn-1-yl)phenyl]-1H-pyrrolo [2,3-b]pyridine-3-carbonyl}-2,4-difluorophenyl)-3-fluoropyrrolidine-1-sulfonamide]",5 to 50 nM,35 to 70%,1 to 10 nM,35 to 70%
"O=C1CCC(N2Cc3cc(N4CC5(CC(CN6CCc7cc(-c8cnc9[nH]cc(C(=O)c%10c(F)ccc(NS(=O)(=O)N%11CC[C@@H](F)C%11)c%10F)c9c8)ccc7C6)C5)C4)ccc3C2=O)C(=O)N1 (stereo partly drawn) [Compound 8, (3R)-N-(3-{5-[2-({2-[2-(2,6-dioxopiperidin-3-yl)-1-oxo-2,3-dihydro-1H-isoindol-5-yl]-2-azaspiro[3.3]heptan-6-yl}methyl)-1,2,3,4-tetrahydroisoquinolin-6-yl]-1H-pyrrolo[2,3-b]pyridine-3-carbonyl}-2,4-difluorophenyl)-3-fluoropyrrolidine-1-sulfonamide]",5 to 50 nM,35 to 70%,10 to 30 nM,35 to 70%
"COc1cc(CN2CCN(c3ccc(-c4cnc5[nH]cc(C(=O)c6c(F)ccc(NS(=O)(=O)N7CC[C@@H](F)C7)c6F)c5c4)cc3)CC2)cc2c1C(=O)N(C1CCC(=O)NC1=O)C2 (stereo partly drawn) [Compound 102, (3R)-N-(3-{5-[4-(4-{[2-(2,6-dioxopiperidin-3-yl)-7-methoxy-1-oxo-2,3-dihydro-1H-isoindol-5-yl]methyl}piperazin-1-yl)phenyl]-1H-pyrrolo[2,3-b]pyridine-3-carbonyl}-2,4-difluorophenyl)-3-fluoropyrrolidine-1-sulfonamide]",> 500 nM,> 70%,1 to 10 nM,35 to 70%
"O=C1CC[C@H](NC(=O)c2ccc(N3CC4(CN(CC5CCN(c6ccc(-c7cnc8[nH]cc(C(=O)c9c(F)ccc(NS(=O)(=O)N%10CC[C@@H](F)C%10)c9F)c8c7)cc6)CC5)C4)C3)cc2F)C(=O)N1 [Compound 31, 4-(6-{[1-(4-{3-[2,6-difluoro-3-({[(3R)-3-fluoropyrrolidin-1-yl]sulfonyl}amino)benzoyl]-1H-pyrrolo[2,3-b]pyridin-5-yl}phenyl)piperidin-4-yl]methyl}-2,6-diazaspiro[3.3]heptan-2-yl)-N-[(3S)-2,6-dioxopiperidin-3-yl]-2-fluorobenzamide]",5 to 50 nM,35 to 70%,< 1 nM,35 to 70%
"O=C1CCC(N2Cc3cc(N4CC5(CN(CCOc6ccc(-c7cnc8[nH]cc(C(=O)c9c(F)ccc(NS(=O)(=O)N%10CC[C@@H](F)C%10)c9F)c8c7)cc6F)C5)C4)ccc3C2=O)C(=O)N1 (stereo partly drawn) [Compound 114, (3R)-N-(3-{5-[4-(2-{6-[2-(2,6-dioxopiperidin-3-yl)-1-oxo-2,3-dihydro-1H-isoindol-5-yl]-2,6-diazaspiro[3.3]heptan-2-yl}ethoxy)-3-fluorophenyl]-1H-pyrrolo[2,3-b]pyridine-3-carbonyl}-2,4-difluorophenyl)-3-fluoropyrrolidine-1-sulfonamide]",5 to 50 nM,35 to 70%,1 to 10 nM,> 70%

# Now from value to molecule:
DC50 (BRAF V600E),Dmax (BRAF V600E),DC50 (BRAF G466V),Dmax (BRAF G466V),SMILES
5 to 50 nM,35 to 70%,1 to 10 nM,35 to 70%,O=C1CC[C@H](N2Cc3cc(C[C@@H](O)CN4CCC(c5ccc(-c6cnc7[nH]cc(C(=O)c8c(F)ccc(NS(=O)(=O)N9CC[C@@H](F)C9)c8F)c7c6)cc5)CC4)ccc3C2=O)C(=O)N1 [Compound 107]
5 to 50 nM,35 to 70%,1 to 10 nM,> 70%,"O=C1CC[C@H](N2Cc3cc(N4CC5(CN(CC6CCN(c7ccc(-c8cnc9[nH]cc(C(=O)c%10c(F)ccc(NS(=O)(=O)N%11CC[C@@H](F)C%11)c%10F)c9c8)cc7)CC6)C5)C4)ccc3C2=O)C(=O)N1 [Compound 221, (3R)-N-{3-[5-(4-{4-[(6-{2-[(3S)-2,6-dioxopiperidin-3-yl]-1-oxo-2,3-dihydro-1H-isoindol-5-yl}-2,6-diazaspiro[3.3]heptan-2-yl)methyl]piperidin-1-yl}phenyl)-1H-pyrrolo[2,3-b]pyridine-3-carbonyl]-2,4-difluorophenyl}-3-fluoropyrrolidine-1-sulfonamide]"
5 to 50 nM,35 to 70%,1 to 10 nM,> 70%,"COc1cc(N2CCC(CN3CC4(C3)CN(c3ccc(-c5cnc6[nH]cc(C(=O)c7c(F)ccc(NS(=O)(=O)N8CC[C@@H](F)C8)c7F)c6c5)cc3)C4)CC2)cc2c1C(=O)N([C@@H]1CCC(=O)NC1=O)C2 [Compound 225, (3R)-N-{3-[5-(4-{6-[(1-{2-[(3R)-2,6-dioxopiperidin-3-yl]-7-methoxy-1-oxo-2,3-dihydro-1H-isoindol-5-yl}piperidin-4-yl)methyl]-2,6-diazaspiro[3.3]heptan-2-yl}phenyl)-1H-pyrrolo[2,3-b]pyridine-3-carbonyl]-2,4-difluorophenyl}-3-fluoropyrrolidine-1-sulfonamide]"
